{"source": "patent US6020360A", "about": "“Anticancer property of dithiolopyrrolones” (priority 1996, dated 2000)", "key": {"[1]": {"tested_on": "breast cancer cell line MCF-7", "assay": "Anticancer activity, SRB growth assay in breast cancer cell line MCF-7 (3 days)", "assay_type": "cell-based", "settings": "Homo sapiens, MCF7, 72 h, 2,500 cells/well, 570 nm, 0.008-1 μg/ml tested", "description": "(§1) These assays are commonly used by those skilled in the art and are accepted as indicative of anticancer activity in mammals. The anticancer activities of dithiolopyrrolones have been determined in cell cultures of human colon cancer cell line HT-29, breast cancer cell line MCF-7 and cervical cancer cell line Hela. The procedure was carried out using the method described by Skehan et al. (1990). Briefly, cancer cells were grown in RPMI-1640 medium with glutamine and 10% fetal calf serum, and were harvested from exponential-phase maintenance cultures. The harvested cells were counted and dispensed into replicate 96-well culture plates in 180 μl volumes for each well with a cell density of 2,500 cells/well. The cells were allowed to settle for about 4 hours at 37° C. Then 20 μl of medium containing the test dithiolopyrrolone was added into each well, resulting in a final test compound concentration between 0.008-1 μg/ml. The test plates were then incubated at 37° C. The test was terminated 3 days after incubation by adding to each well 50 μl of cold 50% trichloroacetic acid. The cells were fixed for an hour at 4° C. and then washed five times with tap water. The washed plates were air-dried and stained for 30 minutes with 0.4% (wt/vol) sulforhodamine B (SRB) which was dissolved in 1% acetic acid. […] Finally, the plates were read in a microtiter plate reader at 570 nm."}, "[2]": {"tested_on": "human colon cancer cell line HT-29", "assay": "Anticancer activity, SRB growth assay in human colon cancer cell line HT-29 (3 days)", "assay_type": "cell-based", "settings": "HT-29, 72 h, HT29, 2,500 cells/well, 570 nm, 0.008-1 μg/ml tested", "description": "as §1"}, "[3]": {"tested_on": "cervical cancer cell line Hela", "assay": "Anticancer activity, SRB growth assay in cervical cancer cell line Hela (3 days)", "assay_type": "cell-based", "settings": "Homo sapiens, 72 h, 2,500 cells/well, 570 nm, 0.008-1 μg/ml tested", "description": "These assays are commonly used by those skilled in the art and are accepted as indicative of anticancer activity in mammals. The anticancer activities of dithiolopyrrolones have been determined in cell cultures of human colon cancer cell line HT-29, breast cancer cell line MCF-7 and cervical cancer cell line Hela. The procedure was carried out using the method described by Skehan et al. (1990). Briefly, cancer cells were grown in RPMI-1640 medium with glutamine and 10% fetal calf serum, and were harvested from exponential-phase maintenance cultures. The harvested cells were counted and dispensed into replicate 96-well culture plates in 180 μl volumes for each well with a cell density of 2,500 cells/well. The cells were allowed to settle for about 4 hours at 37° C. Then 20 μl of medium containing the test dithiolopyrrolone was added into each well, resulting in a final test compound concentration between 0.008-1 μg/ml. The test plates were then incubated at 37° C. The test was terminated 3 days after incubation by adding to each well 50 μl of cold 50% trichloroacetic acid. The cells were fixed for an hour at 4° C. and then washed five times with tap water. The washed plates were air-dried and stained for 30 minutes with 0.4% (wt/vol) sulforhodamine B (SRB) which was dissolved in 1% acetic acid. At the end of the staining period, the SRB was removed and plates were quickly rinsed, five times with 1 % acetic acid. After being rinsed, the plates were air-dried and 100 μl of 10 mM tris base (pH 10.5) were added to each well to solubilize the dye bound to the cells. The plates were placed on a gyratory shaker and shaken (100 rpm) for 10 minutes. Finally, the plates were read in a microtiter plate reader at 570 nm."}, "[4]": {"tested_on": "ornithin decarboxylase (ODC)", "settings": "Sharma et al., 1994; cited from earlier work"}, "[5]": {"tested_on": "mammary cells", "settings": "mammary cells exposed to carcinogens; Menta and Moon, 1991; Arnold et al., 1995; cited from earlier work"}, "[6]": {"tested_on": "RNA polymerase", "settings": "Jimenez et al., 1973, Tipper; cited from earlier work"}, "[7]": {"tested_on": "glutathione", "settings": "Sharma et al., 1994; cited from earlier work"}, "[8]": {"tested_on": "platelet aggregation", "settings": "in vitro; Ninomiya et al., 1980; cited from earlier work"}, "[9]": {"tested_on": "membrane", "settings": "Ninomiya et al., 1980; cited from earlier work"}}}
{"smiles": "CC(=O)Nc1c2sscc-2n(C)c1=O", "note": "[XN0, N-(4,5-dihydro-4-methyl-5-oxo-1,2-dithiolo[4,3-b]pyrrol-6-yl)acetamide]", "values": [{"measurement": "IC50", "setting": "[1]", "value": 0.08, "unit": "µg/mL"}, {"measurement": "IC50", "setting": "[2]", "value": 0.03, "unit": "µg/mL"}, {"measurement": "IC50", "setting": "[3]", "value": 0.07, "unit": "µg/mL"}, {"measurement": "inhibition of ODC (in words)", "setting": "[4]", "value": "inhibits OCD"}, {"measurement": "inhibition of promotion of carcinogenesis-associated activities (in words)", "setting": "[5]", "value": "inhibits the promotion of several other activities possibly associated with the occurrence of carcinogenesis in mammary cells"}, {"measurement": "inhibition of RNA polymerase synthesis (in words)", "setting": "[6]", "value": "inhibits RNA polymerase synthesis"}, {"measurement": "reduction of glutathione (in words)", "setting": "[7]", "value": "induces the reduction of glutathione"}, {"measurement": "inhibition of platelet aggregation (in words)", "setting": "[8]", "value": "inhibits platelet aggregation in vitro"}, {"measurement": "membrane stabilization activity (in words)", "setting": "[9]", "value": "has membrane stabilization activity"}]}
{"smiles": "CCCCCC(=O)Nc1c2sscc-2n(C)c1=O", "note": "[XN1, N-(4,5-dihydro-4-methyl-5-oxo-1,2-dithiolo[4,3-b]pyrrol-6-yl)hexanoamide]", "values": [{"measurement": "IC50", "setting": "[3]", "value": 0.13, "unit": "µg/mL"}]}
{"smiles": "CC(C)CCCC(=O)Nc1c2sscc-2[nH]c1=O", "note": "[XN3, N-(4,5-dihydro-5-oxo-1,2-dithiolo[4,3-b]pyrrol-6-yl)5-methylhexanoamide]", "values": [{"measurement": "IC50", "setting": "[3]", "value": 0.09, "unit": "µg/mL"}]}
